These results are taken from patent US7258872B1, “Chromone enteric release formulation” (Thornton & Ross Limited, priority 1998, dated 2007).

The conditions of data set [1]: cited from earlier work.
Data set [2] is described as follows: Solubility of sodium cromoglycate in water. It counts as physicochemical. The source says:
Water may be used without additional binder or surfactant.

A further data set relates to B lymphocytes. The conditions noted are these: cited from earlier work.

Turning to `O=C(O)c1cc(=O)c2c(OCC(O)COc3cccc4oc(C(=O)O)cc(=O)c34)cccc2o1` [sodium cromoglycate], the “solubility in acid” value in data set [1] (acid medium / gastric fluid) is on record as “insoluble in an acid medium”. Further, in data set [1] (model assumption), the “lipid solubility” value was “lipid insoluble” and the “water solubility” value was “water soluble”. In data set [2], the “freely soluble up to” value is on record as “up to 5%” and the “soluble with difficulty up to” value is listed as “up to 10%”. Besides, the “effect on IgE synthesis by B lymphocytes” value with B lymphocytes is given as “reduce the ability of IgE-producing cells, the B lymphocytes, to synthesise IgE antibody”.
